Laboratory results reported in patent US5369114A, “Biphenylene branched alkyleneoxy quinolines” (Imperial Chemical Industries PLC, priority 1990, dated 1994).

Key:
[1] = target: T1, AII receptors (cell surface membrane fraction, guinea pig adrenal gland) (Cavia porcellus, UniProt Q9WV26); assay: Test A: displacement of radiolabelled AII binding from guinea pig adrenal membranes; conditions: in vitro, read-out: IC50 (concentration for 50% displacement of radiolabelled AII binding)
T1 construct: the source of cell surface membranes is the guinea pig adrenal gland; from tissue; host or cells: guinea pig adrenal gland, cell surface membrane fraction
T1 sequence (Q9WV26 1-359): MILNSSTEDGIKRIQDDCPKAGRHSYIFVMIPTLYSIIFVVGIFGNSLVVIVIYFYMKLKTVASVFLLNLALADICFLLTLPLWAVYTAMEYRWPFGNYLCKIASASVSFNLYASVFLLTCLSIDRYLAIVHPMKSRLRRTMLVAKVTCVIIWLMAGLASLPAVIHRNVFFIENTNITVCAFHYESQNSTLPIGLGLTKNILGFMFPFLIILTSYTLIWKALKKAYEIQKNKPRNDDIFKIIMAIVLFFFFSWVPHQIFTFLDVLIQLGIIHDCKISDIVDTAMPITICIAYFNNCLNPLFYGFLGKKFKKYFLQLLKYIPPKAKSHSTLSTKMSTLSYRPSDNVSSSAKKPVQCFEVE
Experimental: This in vitro procedure involves the incubation of the test compound initially at a concentration of 100 micromolar (or less) in a buffered mixture containing fixed concentrations of radiolabelled AII and a cell surface membrane fraction prepared from a suitable angiotensin target tissue. In this test, the source of cell surface membranes is the guinea pig adrenal gland which is well known to respond to AII. Interaction of the radiolabelled AII with its receptors (assessed as radiolabel bound to the particulate membrane fraction following removal of unbound radiolabel by a rapid filtration procedure such as is standard in such studies) is antagonized by compounds which also bind to the membrane receptor sites and the degree of antagonism (observed in the test as displacement of membrane-bound radioactivity) is determined readily by comparing the receptor-bound radioactivity in the presence of the test compound at the specified test concentration with a control value determined in the absence of the test compound. Using this procedure compounds showing at least 50% displacement of radiolabelled AII binding at a concentration of 10^-4 M are retested at lower concentrations to determine their potency. […]

[2] = tested on: angiotensin II-induced pressor responses; assay: Test C: in vivo antagonism of angiotensin II-induced pressor responses in rats; conditions: iv, rat, i.v. administration
Experimental: This in vivo test involves using terminally-anaesthetised or conscious rats in which an arterial catheter has been implanted under anaesthesia for the measurement of changes in blood pressure. The AII antagonistic effects of the test compound following oral or parenteral administration, are assessed against angiotensin II-induced pressor responses. To ensure that the effect is specific, the effect of the test compound on vasopressin-induced pressor responses may also be determined in the same preparation.

IC50 [1]: 40 nM
Structure (SMILES): Cc1cc(OC(C)c2ccc(-c3ccccc3-c3nnn[nH]3)cc2)c2ccccc2n1.Cl (centres unmarked) [Example 1, 2-methyl-4-[1-(2'-(1H-tetrazol-5-yl)biphenyl-4-yl)ethoxy]quinoline hydrochloride]
ED50 [2]: 0.18 mg/kg
